What all share (format): in vivo, rat
Data set [1] concerns hyperammonemic rats. Briefly: Spatial memory in the Morris water maze, chronic hyperammonemia model (Example 3). As to conditions: 20 mg/kg s.c. once daily, 4th-5th week of treatment. An excerpt:
In this study an animal model of chronic hyperammonemia was used that reproduces many of the cognitive and motor alterations present in hepatic encephalopathy. Rats were fed with ammonia in their food and after two weeks with ammonia enriched food they developed symptoms of hepatic encephalopathy. The beam walking test was made during the 3rd and 4th week of 3α-ethynyl-3β-hydroxyandrostan-17-one oxime treatment while the Morris Water maze test was made during 4th-5th week of 3α-ethynyl-3β-hydroxyandrostan-17-one oxime treatment and the Radial maze test was made during 6th-7th week of 3α-ethynyl-3β-hydroxyandrostan-17-one oxime treatment. […]
The test was carried out as follows; the first day was the pre-training day, rats were put in the water two times for 30 s only to adapt to water. […] The time, speed and path needed to find the hidden platform was recorded by a video tracking system provided by Viewpoint Company (Viewpoint 2.5, Champagne au Mont D′ Or, France) and used as a measure of learning of the task. After 15 training trial, the platform was removed from the pool, the rats were allowed to swim for 90 s in the pool and the time spent in the quadrant where the platform was positioned during training was recorded.

The nature of data set [2]: Concentrations in plasma and brain tissue after exogenous administration, LC-MS (Example 5). The conditions noted are these: for Unbound brain concentration: 1-2 h after last treatment, seven weeks daily 20 mg/kg s.c. An excerpt:
The study was divided into two series with animals (male Wistar rats), each series included the following groups; Controls treated with vehicle (CV, n=8 per series), Controls treated with 3α-ethynyl-3β-hydroxyandrostan-17-one oxime (C+GAM, n=8 per series), hyperammonemic rats treated with vehicle (HAV, n=8 per series), hyperammonemic rats treated with 3α-ethynyl-3β-hydroxyandrostan-17-one oxime (HA+GAM, n=8 per series). The once daily treatment with 3α-ethynyl-3β-hydroxyandrostan-17-one oxime at 20 mg/kg or with vehicle was performed with subcutaneous injections of 1 ml/kg around 9 a.m. Treatment started one week after starting with the ammonium containing diet and continued for the whole experimental period.
Blood was obtained from the tail of the rats (from Example 2) in the end of second week of ammonia treatment and first week of 3α-ethynyl-3β-hydroxyandrostan-17-one oxime treatment and also from the neck during the animal sacrifice. To obtain the plasma it was added EDTA […] and centrifuged at 1500 r.p.m during 5 minutes.
Rats were sacrificed by decapitation. One half of the brain including the cerebellum was collected and conserved at −80° C. for determination of 3α-ethynyl-3β-hydroxyandrostan-17-one oxime. Different brain areas (cerebellum, cortex, hippocampus and striatum) were dissected and conserved at −80° C. for possible determination of GAMS.
Collected brain and plasma samples were analyzed for 3α-ethynyl-3β-hydroxyandrostan-17-one oxime concentrations. Plasma and brain samples were thawed at room temperature. Plasma was protein-precipitated with a 3-fold volume with acetonitrile and brain tissue was homogenized with a 1:4 ratio of tissue:PBS (pH 7.4) and then extracted with a 2-fold volume of methanol:acetonitrile (1:1) for 20 min during sonication. Thereafter samples were shaken and centrifuged for 10 min at 10 000×g (Heraeus Pico 17 centrifuge).
The supernatant was then diluted with an equal volume of PBS and analyzed. Some samples were reanalyzed as 10-fold dilutions due to too high concentration of 3α-ethynyl-3β-hydroxyandrostan-17-one oxime. […]

Data set [3] concerns PCS rats. Briefly: Beam walking test, PCS rats (Example 8). The procedure:
Male Wistar rats (220-240 g) were anesthetized with isoflurane, and an end-to side porta-caval anastomosis was performed as described by Lee and Fisher (Surgery, 1961, 50, 668-672).
Rats that were subjected to the porta-caval anastomosis procedure are herein referred to as “PCS rats”.
3α-ethynyl-3β-hydroxyandrostan-17-one oxime in sesame oil was administered by subcutaneous injections in the back of the rats, once daily. Two different sets of experiments were performed in hyperammonemic rats. In the first set four groups of rats were used: 1) control rats injected with vehicle; 2) hyperammonemic rats injected with vehicle; 3) control rats injected with 20 mg/Kg of 3α-ethynyl-3β-hydroxyandrostan-17-one oxime and 4) hyperammonemic rats injected with 20 mg/Kg of 3α-ethynyl-3β-hydroxyandrostan-17-one oxime. […]
Motor coordination was tested as described by Gonzalez-Usano et al (ACS Chemical Neuroscience, 2014, 19, 5(2), 100-105) using a wooden beam (20 mm diameter). Rats were made to traverse a one-meter-long wooden beam located approximately one meter above the ground, and the number of foot faults (slips) was recorded by two observers. The rats were trained for the test by being made to traverse the beam up to five times before measurements were recorded. […]

In the case of `C#C[C@]1(O)CC[C@@]2(C)C(CC[C@@H]3[C@@H]2CC[C@]2(C)/C(=N\O)CC[C@@H]32)C1` (stereo partly drawn) [3α-ethynyl-3β-hydroxyandrostan-17-one oxime], the “Spatial memory in the Morris water maze (time to find the platform)” value in data set [1] is listed as “completely restored spatial memory”. For the same molecule, the Unbound brain concentration in data set [2] (HA rats) is 106 ± 15.4 nmol/kg; in data set [2] (control rats), 91 ± 4.1 nmol/kg. Moreover, in data set [2] (treatment day five, 20 mg/kg s.c., control and hyperammonemic rats), the “Total concentration in plasma, 23 hours vs 4 hours after injection” value is “lower 23 hours after injection than 4 hours after injection”. The figures for the “Number of slips, beam walking test” value in data set [3] (0.7 mg/kg s.c. once daily) and in data set [3] (2.5 mg/Kg s.c. once daily) were 0.75±0.10 slips and 0.8±0.1 slips, respectively.

These data come from US10342804B2, “Steroid compound for use in the treatment of hepatic encephalopathy” (Umecrine Cognition AB, priority 2014, dated 2019).
